Reference: PMC11012124, “Synthesis of Novel Triazine-Based Chalcones and 8,9-dihydro-7H-pyrimido[4,5-b][1,4]diazepines as Potential Leads in the Search of Anticancer, Antibacterial and Antifungal Agents” (International Journal of Molecular Sciences, 2024)
Converted amounts (≈) assume the structure as drawn.

Assays:
60 cancer cell lines = experiment: NCI-60 one-dose screen (10 μM); format: cell-based; conditions: Homo sapiens; one dose of 10 μM, mean over 60 cancer cell lines; read-out: Mean Growth Percent (MGP)
Text: Additionally, the mean of the growth percentages (MGP) of each compound against all the 60 cancer cell lines is also reported, which is used as one of the selection criteria to continue with tests at five concentration doses.

[1] = test system: N. gonorrhoeae ATCC 49226; experiment: MIC on GC agar plates; format: cell-based, Neisseria gonorrhoeae; conditions: Neisseria gonorrhoeae, ATCC49226, read-out: MIC
Summary of the method: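 N. gonorrhoeae (1 × 10^4 CFU) was spotted onto IsoVitaleX-supplemented (1%) GC agar containing graded compound levels. The lowest inhibitory concentration was recorded as the MIC, with oxidase testing used to verify growth, and each assay was done in duplicate on at least two separate occasions.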

[2] = test system: M. tuberculosis ATCC 27294; experiment: Antitubercular broth microdilution MIC; format: cell-based; conditions: Mycobacterium tuberculosis; M. tuberculosis ATCC 27294 (H37Rv); read-out: Minimum inhibitory concentration (MIC)
HL-60(TB) = experiment: cells; conditions: Homo sapiens, HL-60, 48 h; for CC50: read-out: LC50
RPMI-8226 = experiment: cells; conditions: Homo sapiens, RPMI-8226, 48 h; for CC50: read-out: LC50
NCI-H226 = experiment: cells; conditions: Homo sapiens, NCI-H226, 48 h; for CC50: read-out: LC50
NCI-H322M = experiment: cells; conditions: Homo sapiens, 48 h; for CC50: read-out: LC50
NCI-H522 = experiment: cells; conditions: Homo sapiens, NCI-H522, 48 h; for CC50: read-out: LC50
SF-539 = experiment: cells; conditions: Homo sapiens, SF-539, 48 h; for CC50: read-out: LC50, SF-539, 48 h
SNB-19 = experiment: cells; conditions: Homo sapiens, SNB-19, 48 h; for CC50: read-out: LC50
SNB-75 = experiment: cells; conditions: Homo sapiens, SNB-75, 48 h; for CC50: read-out: LC50
M14 = experiment: cells; conditions: Homo sapiens, M14, 48 h; for CC50: read-out: LC50
MDA-MB-435 = experiment: cells; conditions: Homo sapiens, MDA-MB-435, 48 h; for CC50: read-out: LC50
UACC-257 = experiment: cells; conditions: Homo sapiens, UACC-257, 48 h; for CC50: read-out: LC50
UACC-62 = experiment: cells; conditions: Homo sapiens, UACC-62, 48 h; for CC50: read-out: LC50
OVCAR-4 = experiment: cells; conditions: Homo sapiens, OVCAR-4, 48 h; for CC50: read-out: LC50
OVCAR-8 = experiment: cells; conditions: Homo sapiens, OVCAR-8, 48 h; for CC50: read-out: LC50
NCI/ADR-RES = experiment: cells; conditions: Homo sapiens, 48 h; for CC50: read-out: LC50
SN12C = experiment: cells; conditions: Homo sapiens, 48 h; for CC50: read-out: LC50
TK-10 = experiment: cells; conditions: Homo sapiens, TK-10, 48 h; for CC50: read-out: LC50
DU-145 = experiment: cells; conditions: Homo sapiens, DU-145, 48 h; for CC50: read-out: LC50
MCF7 = experiment: cells; conditions: Homo sapiens, MCF7, 48 h; for CC50: read-out: LC50
HS 578T = experiment: cells; conditions: Homo sapiens, 48 h; for CC50: read-out: LC50
BT-549 = experiment: cells; conditions: Homo sapiens, BT-549, 48 h; for CC50: read-out: LC50
MDA-MB-468 = experiment: cells; conditions: Homo sapiens, MDA-MB-468, 48 h; for CC50: read-out: LC50

`CN(C)c1nc(NCCNS(=O)(=O)c2ccc(C3=Nc4c(N)nc(N)nc4NC(c4ccccc4)C3)cc2)nc(Nc2ccc(F)cc2)n1` (stereo not drawn) [31a] gave an activity at 10 µM (60 cancer cell lines) of 40.4%, an MIC [1] of 8 µg/mL (≈ 11.7 µM) and an MIC [2] of 1.2 µg/mL (≈ 1.75 µM). The GI50 (HL-60(TB)) was 4.24 µM, the CC50 (HL-60(TB)) was > 100 µM and the GI50 (RPMI-8226) was 3.32 µM. The CC50 (RPMI-8226) was > 100 µM, the GI50 (NCI-H226) was > 100 µM and the CC50 (NCI-H226) was > 100 µM. For the same molecule, the GI50 (NCI-H322M) was > 100 µM, the CC50 (NCI-H322M) was > 100 µM and the GI50 (NCI-H522) was 77.4 µM. For the same molecule, the CC50 (NCI-H522) was > 100 µM, the GI50 (SF-539) was 12 µM and the CC50 (SF-539) was 63.8 µM. The GI50 (SNB-19) was 21.8 µM, the CC50 (SNB-19) was > 100 µM and the GI50 (SNB-75) was 3.58 µM. The CC50 (SNB-75) was > 100 µM, the GI50 (M14) was 24.4 µM and the CC50 (M14) was > 100 µM. For the same molecule, the GI50 (MDA-MB-435) was 15 µM, the CC50 (MDA-MB-435) was > 100 µM and the GI50 (UACC-257) was 87.2 µM. For the same molecule, the CC50 (UACC-257) was > 100 µM, the GI50 (UACC-62) was 31.5 µM and the CC50 (UACC-62) was > 100 µM. For the same molecule, the GI50 (OVCAR-4) was 74.6 µM, the CC50 (OVCAR-4) was > 100 µM and the GI50 (OVCAR-8) was 61.4 µM. For the same molecule, the CC50 (OVCAR-8) was > 100 µM, the GI50 (NCI/ADR-RES) was > 100 µM and the CC50 (NCI/ADR-RES) was > 100 µM. For the same molecule, the GI50 (SN12C) was 7.83 µM, the CC50 (SN12C) was > 100 µM and the GI50 (TK-10) was > 100 µM. For the same molecule, the CC50 (TK-10) was > 100 µM, the GI50 (DU-145) was > 100 µM and the CC50 (DU-145) was > 100 µM. The GI50 (MCF7) was 3.85 µM, the CC50 (MCF7) was 85.5 µM and the GI50 (HS 578T) was 6.43 µM. For the same molecule, the CC50 (HS 578T) was > 100 µM, the GI50 (BT-549) was 8.82 µM and the CC50 (BT-549) was > 100 µM. It also gave a GI50 (MDA-MB-468) of 3.37 µM and a CC50 (MDA-MB-468) of 13.7 µM.
`Cc1ccc(C2CC(c3ccc(S(=O)(=O)NCCNc4nc(Nc5ccc(F)cc5)nc(N(C)C)n4)cc3)=Nc3c(N)nc(N)nc3N2)cc1` (stereo not drawn) [31b] showed an activity at 10 µM (60 cancer cell lines) of 48.4%, an MIC [1] of 8 µg/mL (≈ 11.5 µM) and an MIC [2] of 0.6 µg/mL (≈ 0.86 µM). It also gave a GI50 (HL-60(TB)) of 2.94 µM, a CC50 (HL-60(TB)) of 20.2 µM and a GI50 (RPMI-8226) of 2.94 µM. For the same molecule, the CC50 (RPMI-8226) was > 100 µM, the GI50 (NCI-H226) was > 100 µM and the CC50 (NCI-H226) was > 100 µM. For the same molecule, the GI50 (NCI-H322M) was > 100 µM, the CC50 (NCI-H322M) was > 100 µM and the GI50 (NCI-H522) was 21.3 µM. For the same molecule, the CC50 (NCI-H522) was > 100 µM, the GI50 (SF-539) was 3.29 µM and the CC50 (SF-539) was 78.9 µM. For the same molecule, the GI50 (SNB-19) was 13.1 µM, the CC50 (SNB-19) was > 100 µM and the GI50 (SNB-75) was > 100 µM. The CC50 (SNB-75) was > 100 µM, the GI50 (M14) was 4.56 µM and the CC50 (M14) was > 100 µM. For the same molecule, the GI50 (MDA-MB-435) was 8.79 µM, the CC50 (MDA-MB-435) was > 100 µM and the GI50 (UACC-257) was 26 µM. The CC50 (UACC-257) was > 100 µM, the GI50 (UACC-62) was 20.9 µM and the CC50 (UACC-62) was > 100 µM. The CC50 (OVCAR-4) was > 100 µM, the CC50 (OVCAR-8) was > 100 µM and the GI50 (NCI/ADR-RES) was > 100 µM. The CC50 (NCI/ADR-RES) was > 100 µM, the GI50 (SN12C) was > 100 µM and the CC50 (SN12C) was > 100 µM. The GI50 (TK-10) was > 100 µM, the CC50 (TK-10) was > 100 µM and the GI50 (DU-145) was > 100 µM. For the same molecule, the CC50 (DU-145) was > 100 µM, the GI50 (MCF7) was 3.08 µM and the CC50 (MCF7) was > 100 µM. For the same molecule, the GI50 (HS 578T) was 19.4 µM, the CC50 (HS 578T) was > 100 µM and the GI50 (BT-549) was 5.46 µM. For the same molecule, the CC50 (BT-549) was 59.4 µM, the GI50 (MDA-MB-468) was 2.72 µM and the CC50 (MDA-MB-468) was 8.52 µM.
For `CN(C)c1nc(NCCNS(=O)(=O)c2ccc(C3=Nc4c(N)nc(N)nc4NC(c4ccc(Cl)cc4)C3)cc2)nc(Nc2ccc(F)cc2)n1` (stereo not drawn) [31e], the activity at 10 µM (60 cancer cell lines) was 30.8%, the MIC [1] was 0.5 µg/mL (≈ 0.696 µM) and the MIC [2] was 1.2 µg/mL (≈ 1.67 µM). It also gave a GI50 (HL-60(TB)) of 2.72 µM, a CC50 (HL-60(TB)) of 13.3 µM and a GI50 (RPMI-8226) of 3.19 µM. The CC50 (RPMI-8226) was > 100 µM, the GI50 (NCI-H226) was > 100 µM and the CC50 (NCI-H226) was > 100 µM. The GI50 (NCI-H322M) was > 100 µM, the CC50 (NCI-H322M) was > 100 µM and the GI50 (NCI-H522) was 16 µM. For the same molecule, the CC50 (NCI-H522) was > 100 µM, the GI50 (SF-539) was 3.3 µM and the CC50 (SF-539) was > 100 µM. The GI50 (SNB-19) was 5.67 µM, the CC50 (SNB-19) was > 100 µM and the GI50 (SNB-75) was 3.76 µM. The CC50 (SNB-75) was > 100 µM, the GI50 (M14) was 3.15 µM and the CC50 (M14) was 11.5 µM. For the same molecule, the GI50 (MDA-MB-435) was 5.17 µM, the CC50 (MDA-MB-435) was > 100 µM and the GI50 (UACC-257) was 8.07 µM. For the same molecule, the CC50 (UACC-257) was > 100 µM, the GI50 (UACC-62) was 6.46 µM and the CC50 (UACC-62) was > 100 µM. For the same molecule, the CC50 (OVCAR-4) was > 100 µM, the GI50 (OVCAR-8) was > 100 µM and the CC50 (OVCAR-8) was > 100 µM. The GI50 (NCI/ADR-RES) was > 100 µM, the CC50 (NCI/ADR-RES) was > 100 µM and the GI50 (SN12C) was 7.37 µM. The CC50 (SN12C) was > 100 µM, the GI50 (TK-10) was > 100 µM and the CC50 (TK-10) was > 100 µM. The GI50 (DU-145) was > 100 µM, the CC50 (DU-145) was > 100 µM and the GI50 (MCF7) was 2.89 µM. The CC50 (MCF7) was > 100 µM, the GI50 (HS 578T) was 7.15 µM and the CC50 (HS 578T) was > 100 µM. For the same molecule, the GI50 (BT-549) was 3.96 µM, the CC50 (BT-549) was 28.7 µM and the GI50 (MDA-MB-468) was 1.92 µM. For the same molecule, the CC50 (MDA-MB-468) was 4.92 µM.
